# Test results published in patent US20110098177A1, “METHODS AND COMPOSITIONS OF PLANT MICRONUTRIENTS” (NOVUS INTERNATIONAL INC., priority 2006, published 2011).
# “Also recorded” adds a separate entry of the source.
# Assays:
# Type in all cases: in vivo
# [1] = test system: Tygress tomato plants; assay: Nutrient concentration of tomato fruits at 10 WAT, open field (Examples 7-10); settings: for B concentration of tomato fruits / Ca concentration of tomato fruits / Cu concentration of tomato fruits / Fe concentration of tomato fruits / K concentration of tomato fruits / Mg concentration of tomato fruits / Mn concentration of tomato fruits / N concentration of tomato fruits / P concentration of tomato fruits / Zn concentration of tomato fruits: 10 WAT, open field, product rate as Table 17
# In short: (§1)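 Open-field 2008 trial, Balm FL; 'Tygress' tomato and 'Patriot' pepper transplants on drip-fed raised beds. Foliar micronutrient sprays at 3 and 5 WAT (BIOX-CM at 4 and 5), 60 gal/acre with surfactant. Youngest mature leaves sampled 6 WAT; RCBD, 5 replications, Fisher's LSD 5%.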
# [2] = test system: Tygress tomato plants; assay: Foliar nutrient concentration at 6 WAT, open-field tomato (Examples 7-10); settings: 6 WAT, open field; for Foliar B concentration of tomato plants / Foliar Ca concentration of tomato plants / Foliar Cu concentration of tomato plants / Foliar Fe concentration of tomato plants / Foliar K concentration of tomato plants / Foliar Mg concentration of tomato plants / Foliar Mn concentration of tomato plants / Foliar N concentration of tomato plants / Foliar P concentration of tomato plants / Foliar Zn concentration of tomato plants: product rate as Table 17
# In short: as §1
# [3] = test system: Patriot bell pepper plants; assay: Foliar nutrient concentration at 6 WAT, open-field bell pepper (Examples 7-10); settings: for Foliar B concentration of bell pepper plants / Foliar Ca concentration of bell pepper plants / Foliar Cu concentration of bell pepper plants / Foliar Fe concentration of bell pepper plants / Foliar K concentration of bell pepper plants / Foliar Mg concentration of bell pepper plants / Foliar Mn concentration of bell pepper plants / Foliar N concentration of bell pepper plants / Foliar P concentration of bell pepper plants / Foliar Zn concentration of bell pepper plants: 6 WAT, open field, product rate as Table 17
# In short: as §1
# [4] = test system: Tygress tomato plants; assay: Marketable yield, open-field tomato (Examples 7-10); settings: open field; for Marketable yield, Tomato: lb/acre/season: BIOX-Z 1.3, Cu 6.7, M 23.0, Fe 3.2, INC 4.0, INZ 0.6, CM 10.0, GZ 1.0, GF 4.0, EDZ 1.4, EDM 23.0
# In short: as §1
# [5] = test system: Patriot bell pepper plants; assay: Marketable yield, open-field bell pepper (Examples 7-10); settings: open field; lb/acre/season: BIOX-Z 1.3, Cu 6.7, M 23.0, Fe 3.2, INC 4.0, INZ 0.6, CM 10.0, GZ 1.0, GF 4.0, EDZ 1.4, EDM 23.0
# In short: as §1
# [6] = test system: Tygress tomato plants; assay: Foliar nutrient concentration 2 weeks after treatment, greenhouse tomato (Examples 4-6); settings: for B concentration in tomato leaves / Ca concentration in tomato leaves / Cu concentration in tomato leaves / Fe concentration in tomato leaves / K concentration in tomato leaves / Mg concentration in tomato leaves / N concentration in tomato leaves / P concentration in tomato leaves / Zn concentration in tomato leaves: 2 weeks after Mn treatment; for Foliar Mn concentration: tomato leaves 2 weeks after Mn treatment
# In short: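 Tygress tomato in 2-gallon pots of micronutrient-poor medium (negligible Fe, Zn, Mn, Cu) in greenhouse; foliar treatments at 5 WAT in 200 mL/plant water with non-ionic surfactant. Newest non-applied leaves analysed 2 weeks before and after treatment; marketable fruit harvested three times from 10 WAT, graded. RCBD, 6 replications, LSD 5%.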
compound,measurement,setting,value
"CSCCC(O)C(=O)[O-].CSCCC(O)C(=O)[O-].[Cu+2] (stereo not drawn) [BIOX-Cu, Cu-HMTBA]",B concentration of tomato fruits,[1],21 ppm
same,Ca concentration of tomato fruits,[1],0.2%
same,Cu concentration of tomato fruits,[1],21 ppm
same,Fe concentration of tomato fruits,[1],77 ppm
same,K concentration of tomato fruits,[1],8.5%
same,Mg concentration of tomato fruits,[1],0.39%
same,Mn concentration of tomato fruits,[1],37 ppm
same,N concentration of tomato fruits,[1],4.4%
same,P concentration of tomato fruits,[1],0.67%
same,Zn concentration of tomato fruits,[1],294 ppm
same,Foliar B concentration of tomato plants,[2],42 ppm
same,Foliar Ca concentration of tomato plants,[2],1.8%
same,Foliar Cu concentration of tomato plants,[2],407 b ppm
same,Foliar Fe concentration of tomato plants,[2],83 ppm
same,Foliar K concentration of tomato plants,[2],5.6%
same,Foliar Mg concentration of tomato plants,[2],0.58%
same,Foliar Mn concentration of tomato plants,[2],211 ppm
same,Foliar N concentration of tomato plants,[2],5.0%
same,Foliar P concentration of tomato plants,[2],0.21%
same,Foliar Zn concentration of tomato plants,[2],306 ppm
same,Foliar B concentration of bell pepper plants,[3],42 ppm
same,Foliar Ca concentration of bell pepper plants,[3],1.8%
same,Foliar Cu concentration of bell pepper plants,[3],407 b ppm
same,Foliar Fe concentration of bell pepper plants,[3],83 ppm
same,Foliar K concentration of bell pepper plants,[3],5.6%
same,Foliar Mg concentration of bell pepper plants,[3],0.58%
same,Foliar Mn concentration of bell pepper plants,[3],211 ppm
same,Foliar N concentration of bell pepper plants,[3],5.0%
same,Foliar P concentration of bell pepper plants,[3],0.21%
same,Foliar Zn concentration of bell pepper plants,[3],306 ppm
same,"Tomato marketable yield compared to control, statement",[4],significantly increased tomato marketable yields relative to control; also recorded: significantly higher marketable yield of tomato fruits compared to control
same,"Marketable yield, Tomato",[4],19.2 a ton/acre
same,"Marketable yield, Bell Pepper",[5],7.8 ton/acre
"CSCCC(O)C(=O)[O-].CSCCC(O)C(=O)[O-].[Mn+2] (stereo not drawn) [BIOX-M, Mn-HMTBA]",B concentration of tomato fruits,[1],23 ppm
same,Ca concentration of tomato fruits,[1],0.2%
same,Cu concentration of tomato fruits,[1],23 b ppm
same,Fe concentration of tomato fruits,[1],81 b ppm
same,K concentration of tomato fruits,[1],8.0%
same,Mg concentration of tomato fruits,[1],0.37%
same,Mn concentration of tomato fruits,[1],43 b ppm
same,N concentration of tomato fruits,[1],4.2%
same,P concentration of tomato fruits,[1],0.65%
same,Zn concentration of tomato fruits,[1],209 b ppm
same,"Foliar concentration of Mn of tomato plants, statement",[2],significant increase; also recorded: highest foliar concentration of Mn; also recorded: significantly higher foliar Mn content
same,"Foliar concentration of P of tomato plants compared to control, statement",[2],significant increase
same,Foliar B concentration of tomato plants,[2],70 ppm
same,Foliar Ca concentration of tomato plants,[2],1.7%
same,Foliar Cu concentration of tomato plants,[2],417 ppm
same,Foliar Fe concentration of tomato plants,[2],88 ppm
same,Foliar K concentration of tomato plants,[2],4.6 b %
same,Foliar Mg concentration of tomato plants,[2],0.56%
same,Foliar Mn concentration of tomato plants,[2],470 a ppm
same,Foliar N concentration of tomato plants,[2],4.4%
same,Foliar P concentration of tomato plants,[2],0.19 b %
same,Foliar Zn concentration of tomato plants,[2],266 b ppm
same,Foliar B concentration of bell pepper plants,[3],59 ppm
same,Foliar Ca concentration of bell pepper plants,[3],4.2%
same,Foliar Cu concentration of bell pepper plants,[3],462 ppm
same,Foliar Fe concentration of bell pepper plants,[3],124 ppm
same,Foliar K concentration of bell pepper plants,[3],3.4%
same,Foliar Mg concentration of bell pepper plants,[3],0.52%
same,Foliar Mn concentration of bell pepper plants,[3],436 ppm
same,Foliar N concentration of bell pepper plants,[3],4.4%
same,Foliar P concentration of bell pepper plants,[3],0.25%
same,Foliar Zn concentration of bell pepper plants,[3],63 ppm
same,"Tomato marketable yield compared to control, statement",[4],significantly higher marketable yield of tomato fruits; also recorded: higher marketable yield of tomato fruits compared to control
same,"Marketable yield, Tomato",[4],18.1 a ton/acre
same,B concentration in tomato leaves,[6]; Mn 0.31 lb/acre,22 ppm
same,Ca concentration in tomato leaves,[6]; Mn 0.31 lb/acre,0.6%
same,Cu concentration in tomato leaves,[6]; Mn 0.31 lb/acre,5 ppm
same,Fe concentration in tomato leaves,[6]; Mn 0.31 lb/acre,109 ppm
same,K concentration in tomato leaves,[6]; Mn 0.31 lb/acre,3.1%
same,Mg concentration in tomato leaves,[6]; Mn 0.31 lb/acre,0.3%
same,N concentration in tomato leaves,[6]; Mn 0.31 lb/acre,3.5%
same,P concentration in tomato leaves,[6]; Mn 0.31 lb/acre,0.4%
same,Zn concentration in tomato leaves,[6]; Mn 0.31 lb/acre,31 ppm
same,Foliar Mn concentration,[6]; Mn 0.31 lb/acre,22.9 b ppm
same,B concentration in tomato leaves,[6]; Mn 0.62 lb/acre,24 ppm
same,Ca concentration in tomato leaves,[6]; Mn 0.62 lb/acre,0.6%
same,Cu concentration in tomato leaves,[6]; Mn 0.62 lb/acre,5 ppm
same,Fe concentration in tomato leaves,[6]; Mn 0.62 lb/acre,110 ppm
same,K concentration in tomato leaves,[6]; Mn 0.62 lb/acre,3.2%
same,Mg concentration in tomato leaves,[6]; Mn 0.62 lb/acre,0.3%
same,N concentration in tomato leaves,[6]; Mn 0.62 lb/acre,3.5%
same,P concentration in tomato leaves,[6]; Mn 0.62 lb/acre,0.5%
same,Zn concentration in tomato leaves,[6]; Mn 0.62 lb/acre,32 ppm
same,Foliar Mn concentration,[6]; Mn 0.62 lb/acre,29.5 b ppm
same,B concentration in tomato leaves,[6]; Mn 1.23 lb/acre,25 ppm
same,Ca concentration in tomato leaves,[6]; Mn 1.23 lb/acre,0.6%
same,Cu concentration in tomato leaves,[6]; Mn 1.23 lb/acre,5 ppm
same,Fe concentration in tomato leaves,[6]; Mn 1.23 lb/acre,112 ppm
same,K concentration in tomato leaves,[6]; Mn 1.23 lb/acre,3.1%
same,Mg concentration in tomato leaves,[6]; Mn 1.23 lb/acre,0.3%
same,N concentration in tomato leaves,[6]; Mn 1.23 lb/acre,3.5%
same,P concentration in tomato leaves,[6]; Mn 1.23 lb/acre,0.5%
same,Zn concentration in tomato leaves,[6]; Mn 1.23 lb/acre,28 ppm
same,Foliar Mn concentration,[6]; Mn 1.23 lb/acre,60.6 a ppm
same,B concentration in tomato leaves,[6]; Mn 2.46 lb/acre,23 ppm
same,Ca concentration in tomato leaves,[6]; Mn 2.46 lb/acre,0.6%
same,Cu concentration in tomato leaves,[6]; Mn 2.46 lb/acre,5 ppm
same,Fe concentration in tomato leaves,[6]; Mn 2.46 lb/acre,114 ppm
same,K concentration in tomato leaves,[6]; Mn 2.46 lb/acre,3.2%
same,Mg concentration in tomato leaves,[6]; Mn 2.46 lb/acre,0.3%
same,N concentration in tomato leaves,[6]; Mn 2.46 lb/acre,3.6%
same,P concentration in tomato leaves,[6]; Mn 2.46 lb/acre,0.4%
same,Zn concentration in tomato leaves,[6]; Mn 2.46 lb/acre,33 ppm
same,Foliar Mn concentration,[6]; Mn 2.46 lb/acre,69.2 a ppm
same,"Marketable yield, Bell Pepper",[5],6.3 ton/acre
Fe-HMTBA [BIOX-Fe],Nutrient concentration of tomato fruits: B,[1]; tomato fruits at 10 WAT,21 ppm
same,Nutrient concentration of tomato fruits: Ca,[1]; tomato fruits at 10 WAT,0.2%
same,Nutrient concentration of tomato fruits: Cu,[1]; tomato fruits at 10 WAT,21 ppm
same,Nutrient concentration of tomato fruits: Fe,[1]; tomato fruits at 10 WAT,77 ppm
same,Nutrient concentration of tomato fruits: K,[1]; tomato fruits at 10 WAT,8.2%
same,Nutrient concentration of tomato fruits: Mg,[1]; tomato fruits at 10 WAT,0.37%
same,Nutrient concentration of tomato fruits: Mn,[1]; tomato fruits at 10 WAT,37 ppm
same,Nutrient concentration of tomato fruits: N,[1]; tomato fruits at 10 WAT,4.2%
same,Nutrient concentration of tomato fruits: P,[1]; tomato fruits at 10 WAT,0.69%
same,Nutrient concentration of tomato fruits: Zn,[1]; tomato fruits at 10 WAT,294 ppm
same,Foliar B concentration of tomato plants,[2],21 ppm
same,Foliar Ca concentration of tomato plants,[2],0.2%
same,Foliar Cu concentration of tomato plants,[2],21 ppm
same,Foliar Fe concentration of tomato plants,[2],77 ppm
same,Foliar K concentration of tomato plants,[2],8.2%
same,Foliar Mg concentration of tomato plants,[2],0.37%
same,Foliar Mn concentration of tomato plants,[2],37 ppm
same,Foliar N concentration of tomato plants,[2],4.2%
same,Foliar P concentration of tomato plants,[2],0.69%
same,Foliar Zn concentration of tomato plants,[2],294 ppm
same,Foliar nutrient concentration: B,[3]; bell pepper plants at 6 WAT,39 ppm
same,Foliar nutrient concentration: Ca,[3]; bell pepper plants at 6 WAT,2.2%
same,Foliar nutrient concentration: Cu,[3]; bell pepper plants at 6 WAT,369 ppm
same,Foliar nutrient concentration: Fe,[3]; bell pepper plants at 6 WAT,112 ppm
same,Foliar nutrient concentration: K,[3]; bell pepper plants at 6 WAT,6.0%
same,Foliar nutrient concentration: Mg,[3]; bell pepper plants at 6 WAT,0.66%
same,Foliar nutrient concentration: Mn,[3]; bell pepper plants at 6 WAT,251 ppm
same,Foliar nutrient concentration: N,[3]; bell pepper plants at 6 WAT,5.0%
same,Foliar nutrient concentration: P,[3]; bell pepper plants at 6 WAT,0.20%
same,Foliar nutrient concentration: Zn,[3]; bell pepper plants at 6 WAT,318 ppm
same,"Tomato marketable yield compared to control, statement",[4],significantly higher tomato marketable yield compared to control
same,"Marketable yield, Tomato",[4],17.8 a ton/acre
same,"Marketable yield, Bell Pepper",[5],7.2 ton/acre
